Several values for one entry are separate records, joined by “and”; a condition that tells them apart may be missing. Equal entries are not always repeated. Structures can show the parent of a compound that is named as a salt. Where two headings read alike, the source gives them in different places. Each block holds one molecule with its values, some of them ahead of it.
Columns and labels:
[1] = racemate; cited from earlier work
[2] = background statement, cited from earlier work
[3] = background statement; cited from earlier work
[4] = type: in vitro ADME, human
Description: The effect of selected formulations on levormeloxifene fumarate permeation through human skin in vitro is illustrated in the following way:
Franz glass diffusion cells were used (Franz, T. J.: Curr. Probl. Dermatol., 1978: 7; 58-68).
Experiments were performed on abdominal or breast skin obtained after surgery and kept at -20° C. for not more than ten months. After initial thawing the skin was squeezed between a metal and a glass plate, and after refreezing the skin was dermatomed to a thickness of 0.5 mm.
The human skin membrane was enclosed in the glass chambers with ground faces (diffusing area 0.64 cm^2). A clamp was used to keep the chambers together. […]
After the skin was allowed to equilibrate at 32° C. for one hour, the capacitance was measured with a Lutron DM 6023 Capacitance meter. […]
The donor solutions were made of selected vehicles which were saturated with levormeloxifene fumarate, cf. […] The concentrations of levormeloxifene fumarate in the donor solutions were determined previously by a HPLC method. […]
At appropriate intervals, samples were taken from the receptor phase and replaced by fresh receptor solution in order to keep sink-conditions. The amount of levormeloxifene fumarate in the receptor solution was determined using liquid scintillatory counting. […]
The mean value and the standard deviation were calculated of the flux J of the replicates. […]

[5] = Concentration of levormeloxifene fumarate in saturated donor solutions (HPLC); type: physicochemical; conditions: stirred 24 hours, room temperature; for solubility thermodynamic at 24 h: read-out: Conc. unmarked (donor phase saturated)
Description: The donor solutions were made of selected vehicles which were saturated with levormeloxifene fumarate, cf. Table 1. To prepare the donor solutions, levormeloxifene fumarate was added to the vehicles, and after stirring at room temperature for 24 hours, the donor solution was saturated with levormeloxifene fumarate and filtered through a Millipore filter 0.22 μm. Thereafter ^14 C-levormeloxifene was added to 1.00 ml of the donor solution to give a final concentration of ^14 C-levormeloxifene at 3 mg/ml (1,3 mCi/mi). Thereafter the donor solution was applied on the epidermal side of the skin, and the experiment was performed with occlusion. The concentrations of levormeloxifene fumarate in the donor solutions were determined previously by a HPLC method.

Compound: COc1ccc2c(c1)OC(C)(C)[C@@H](c1ccccc1)[C@@H]2c1ccc(OCCN2CCCC2)cc1 (relative stereo) [Centchroman]
- cholesterol lowering [1]: potent cholesterol lowering pharmaceutical agent expressed by a significant decrease of the serum concentrations

Compound: COc1ccc2c(c1)OC(C)(C)[C@@H](c1ccccc1)[C@@H]2c1ccc(OCCN2CCCC2)cc1 [hydrochloride salt]
- behaviour in aqueous suspension [2]: forms a solid gel in aqueous suspension
- solubility in water [2]: quite heavy soluble in water
- hygroscopicity [3]: hygroscopic

- Dosage per day [4]: 0.56 mg
- Flux ± S.D. ([4]; pH 4): 0.495 ± 0.125 mg × cm^-2 × h^-1
- solubility thermodynamic at 24 h ([5]; acetic acid 0.05m (b4), pH 4, vehicle B4 (acetic acid 0.05M, pH 4)): 325 µg/mL
- solubility thermodynamic at 24 h ([5]; b4 + 2% 2-pyrrolidon, vehicle B4 + 2% 2-pyrrolidon): 420 µg/mL
- solubility thermodynamic at 24 h ([5]; b4 + 20% ethanol, organic solvent or mixture, vehicle B4 + 20% ethanol): 1400 µg/mL
- solubility thermodynamic at 24 h ([5]; b4 + 30% ethanol, organic solvent or mixture, vehicle B4 + 30% ethanol): 3100 µg/mL
- solubility thermodynamic at 24 h ([5]; pg + 10% oleic acid, organic solvent or mixture, vehicle PG + 10% oleic acid): 116000 µg/mL
- Conc. unmarked (donor phase saturated) ([5]; vehicle B4 (acetic acid 0.05M, pH 4), 1440 min): 320 µg/mL and 325 µg/mL
Compound: COc1ccc2c(c1)OC(C)(C)[C@@H](c1ccccc1)[C@@H]2c1ccc(OCCN2CCCC2)cc1 [levormeloxifene fumarate, (-)-3R,4R-trans-7-methoxy-2,2-dimethyl-3-phenyl-4-{4-[2-(pyrrolidin-1-yl)ethoxy]phenyl}chromane, hydrogen fumarate]

Compound: COc1ccc2c(c1)OC(C)(C)[C@@H](c1ccccc1)[C@@H]2c1ccc(OCCN2CCCC2)cc1 [levormeloxifene, (-)-3R,4R-trans-7-methoxy-2,2-dimethyl-3-phenyl-4-{4-[2-(pyrrolidin-1-yl)ethoxy]phenyl}chromane]
- solubility in water ([2]; listed as free base): very poor solubility in water
